The series has as its system patients with septic shock. The series can be described thus: Randomised, double-blind, placebo-controlled trial of mega-dose vitamin C for septic shock (Example 4). Type of series: in vivo. The note with it: trial ongoing. From the text: A randomised, double-blind, placebo-controlled trial is being conducted to evaluate whether the administration of intravenous mega-dose vitamin C (60 g/day) increases urine output in patients with septic shock admitted to an intensive care unit (ICU).
Patients admitted to the Austin Hospital ICU with the primary diagnosis of septic shock defined according to the Sepsis-3 criteria are screened for eligibility. All the diagnostic criteria of septic shock (based on the SEPSIS-3 criteria) were to be fulfilled simultaneously within the last 24 hours, and vasopressors infused continuously at enrolment. Definition of sepsis is that of suspected or documented infection and an acute increase of ≥2 sequential organ failure assessment (SOFA) points consequent to the infection (a proxy of organ dysfunction). Definition of septic shock are sepsis and need for vasopressor therapy to keep mean arterial pressure (MAP) >65 mmHg for >2 hours and lactate >2 mmol/L, despite adequate fluid resuscitation.
All eligible patients with septic shock are randomised to receive either: • (i) Mega-dose Vitamin C intravenous infusion (sodium ascorbate 30 grams [100 ml] diluted with 150 ml of 5% dextrose infused intravenously over 1 hour followed by sodium ascorbate 30 grams [100 ml] diluted with 150 ml of 5% dextrose infused intravenously over 5 hours); or • (ii) Placebo intravenous infusion administered once (250 ml of 5% dextrose infused intravenously over 1 hour followed by 250 ml of 5% dextrose infused intravenously over 5 hours).
The study infusions are identical in appearance and are supplied in identical 250m1 5% dextrose bags prepared by ICU staff.
Vitamin C levels and arterial blood gas samples are measured at five time points (before loading infusion; after loading dose; 3 hours after the beginning of maintenance infusion; at the end of maintenance infusion; and, 24 hours following the beginning of the study infusion). A single urinary assessment is made of oxalate crystals obtained from testing a 24-hour collection of urine obtained at 24 hours following the beginning of the study infusion. Arterial blood gas samples are also measured to monitor for changes in serum sodium (Na+) and potassium (K+) levels at four time points (before loading infusion [baseline]; after loading dose; 3 hours after the beginning of maintenance infusion; and, at the end of maintenance infusion). The study infusion is stopped if the serum Na+ levels increases >10 mEq/L from the baseline value or absolute serum Na+ levels>160 mEq/L. Information is also collected on fluid balance, intravenous fluid therapy, use of vasopressor drugs and dosage, use of mechanical ventilation and renal replacement therapy and all biochemical and hematological and blood gas analysis variables as well as patient demographics, diagnosis, vital signs and illness severity score, ICU and hospital outcomes (e.g. admission and discharge dates as well as ICU and hospital survival status).
The primary efficacy outcome for this study is the cumulative urine output for 24 consecutive hours following the beginning of the study infusion.
Data analysis is performed on an intention-to-treat basis. Summary statistics are used to describe the clinical data and presented as mean±standard deviation, median with interquartile range (IQR) or percentages as appropriate. Chi-squared analysis with Fisher's exact test (as appropriate), and Student's t-test (Mann Whitney U test for non-normal distributions) are used to compare data between the active treatment group and the control group with statistical significance declared for probability values of less than 0.05. Analysis of the outcome of excluded patients due to other trials etc. is in accordance with CONSORT guidelines.

As to `O=C1O[C@H]([C@@H](O)CO)C([O-])=C1O.[Na+]` [sodium ascorbate], under “60 g/day iv”, the body temperature result was “decreases”, the “oxalate excretion in the urine” value was “no evidence of increased oxalate excretion”, the “requirement for vasopressor support” value is given as “decreases” and the serum sodium levels entry was “no evidence of increased oxalate excretion in the urine or increases in serum sodium levels”. The urinary output entry (60 g/day iv) is “increases”. Besides, the safety concern signal result (sodium ascorbate 30 g over 1 hour then 30 g over 5 hours iv (60 g/day)) is “no safety concern signal”.
